One assay concerns the target T1, HGFR (Homo sapiens, UniProt P08581).
T1 construct: endogenous in cells; host or cells: MKN-45 human gastric cancer cells
As to the kind of experiment: Inhibitory activity against the HGFR autophosphorylation using ELISA (MKN-45 cells). The following applies: 1 hr with test substance. Type of assay: cell-based. Summed up:
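MKN-45 gastric cancer cells, plated overnight in 1% FBS RPMI1640, treated with compound 1 h at 37° C and lysed. Lysate captured on anti-phosphotyrosine (PY20) plates, probed with anti-HGFR then HRP anti-rabbit IgG; TMB absorbance at 450 nm. Activity expressed as % of untreated extract (100%) versus lysis buffer blank (0%).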

The test system of assay [1] is Human gastric cancer cells (MKN-45). Nature of the assay: Inhibitory activity against the proliferation of human gastric cancer cells (MKN-45). Type of assay: cell-based. The following applies: 72 h, MKN-45, 1% FBS RPMI1640, 3 days, Cell Counting Kit-8. Summed up: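 MKN-45 cells seeded overnight in RPMI1640 with 1% FBS, then exposed to compound for 3 days at 37° C, 5% CO2. Viability read with CCK-8 after about 1.5 hrs, absorbance at 450 nm (reference 660 nm).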
(In general: Tetrazolium dyes change colour on reduction, which living cells bring about.)

T1 sequence (P08581 25-1390): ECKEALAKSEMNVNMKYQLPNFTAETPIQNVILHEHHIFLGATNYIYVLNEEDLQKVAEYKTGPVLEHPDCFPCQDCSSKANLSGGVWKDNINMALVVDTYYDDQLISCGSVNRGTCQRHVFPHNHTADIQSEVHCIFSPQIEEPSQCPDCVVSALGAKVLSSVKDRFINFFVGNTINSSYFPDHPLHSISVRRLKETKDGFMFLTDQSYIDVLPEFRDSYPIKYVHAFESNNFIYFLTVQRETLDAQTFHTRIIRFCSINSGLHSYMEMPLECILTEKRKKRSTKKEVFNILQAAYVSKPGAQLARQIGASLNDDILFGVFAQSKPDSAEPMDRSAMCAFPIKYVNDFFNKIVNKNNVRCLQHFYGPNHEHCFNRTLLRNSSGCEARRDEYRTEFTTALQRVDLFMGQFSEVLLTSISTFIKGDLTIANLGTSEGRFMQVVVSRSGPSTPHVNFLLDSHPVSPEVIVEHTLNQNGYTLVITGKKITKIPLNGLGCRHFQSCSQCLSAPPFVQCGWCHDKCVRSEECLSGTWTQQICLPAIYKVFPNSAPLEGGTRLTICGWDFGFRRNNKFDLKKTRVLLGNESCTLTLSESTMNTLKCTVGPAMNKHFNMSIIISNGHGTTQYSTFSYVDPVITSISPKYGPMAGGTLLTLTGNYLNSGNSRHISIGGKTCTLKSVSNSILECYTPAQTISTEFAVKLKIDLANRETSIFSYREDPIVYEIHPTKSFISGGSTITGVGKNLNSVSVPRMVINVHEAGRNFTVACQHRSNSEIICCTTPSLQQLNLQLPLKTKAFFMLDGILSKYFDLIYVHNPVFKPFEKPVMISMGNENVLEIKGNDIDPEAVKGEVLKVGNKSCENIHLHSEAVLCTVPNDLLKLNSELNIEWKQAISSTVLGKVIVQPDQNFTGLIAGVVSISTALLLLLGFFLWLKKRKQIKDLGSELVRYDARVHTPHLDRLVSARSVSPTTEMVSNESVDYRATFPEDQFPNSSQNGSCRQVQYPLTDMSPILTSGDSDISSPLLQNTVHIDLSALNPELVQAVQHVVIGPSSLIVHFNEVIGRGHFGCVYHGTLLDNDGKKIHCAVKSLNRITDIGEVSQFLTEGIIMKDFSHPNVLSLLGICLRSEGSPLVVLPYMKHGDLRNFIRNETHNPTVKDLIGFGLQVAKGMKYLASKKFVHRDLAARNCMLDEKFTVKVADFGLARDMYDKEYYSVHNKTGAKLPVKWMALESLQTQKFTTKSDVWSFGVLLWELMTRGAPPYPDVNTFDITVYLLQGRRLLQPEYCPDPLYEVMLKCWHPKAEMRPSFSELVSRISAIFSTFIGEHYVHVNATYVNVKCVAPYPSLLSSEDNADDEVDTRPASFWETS

The term IC50 denotes the midpoint of a concentration-inhibition curve. Lower therefore signals higher potency. Turning to `O=C(Nc1cc(Oc2ccc(NC(=O)C3(C(=O)Nc4ccc(F)cc4)CC3)c(F)c2)ccn1)N1CCC(CO)CC1` [Example 83, N-(2-Fluoro-4-{[2-({[4-(hydroxymethyl)piperidin-1-yl]carbonyl}amino)pyridin-4-yl]oxy}phenyl)-N′-(4-fluorophenyl)cyclopropane-1,1-dicarboxamide], the IC50 was determined as 18 nM against HGFR and 16 nM in assay [1].

As for `O=C(Nc1cc(Oc2cc(F)c(NC(=O)C3(C(=O)Nc4ccc(F)cc4)CC3)cc2F)ncn1)N1CC(O)C1` [Example 97, N-{2,5-Difluoro-4-[(4-{[(3-hydroxyazetidin-1-yl)carbonyl]amino}pyrimidin-6-yl)oxy]phenyl}-N′-(4-fluorophenyl)cyclopropane-1,1-dicarboxamide], the half-maximal inhibitory concentration (IC50) was found to be 14 nM at HGFR and 38 nM in assay [1].

Regarding `CN(C)CC1CN(C(=O)Nc2cc(Oc3cc(F)c(NC(=O)C4(C(=O)Nc5ccc(F)cc5)CC4)cc3F)ccn2)C1` [Example 93, N-[2,5-Difluoro-4-({2-[({3-[(dimethylamino)methyl]azetidin-1-yl]carbonyl)amino]pyridin-4-yl}oxy)phenyl]-N′-(4-fluorophenyl)cyclopropane-1,1-dicarboxamide], the half-maximal inhibitory concentration (IC50) against HGFR stood at 7 nM; in assay [1], 5.2 nM.

Consider `CN(C)CC1CN(C(=O)Nc2cc(Oc3cc(F)c(NC(=O)C4(C(=O)Nc5ccc(F)cc5)CC4)cc3F)ncn2)C1` [Example 98, N-[4-({4-[({3-[(Dimethylamino)methyl]azetidin-1-yl}carbonyl)amino]pyrimidin-6-yl}oxy)-2,5-difluorophenyl]-N′-(4-fluorophenyl)cyclopropane-1,1-dicarboxamide], for which the results for the half-maximal inhibitory concentration (IC50) (against HGFR; in assay [1]) were 17 nM and 23 nM, respectively.

On to `O=C(Nc1cc(Oc2ccc(NC(=O)C3(C(=O)Nc4ccc(F)cc4)CC3)c(F)c2)ccn1)N1CC[C@@H](O)C1` [Example 87, N-(2-Fluoro-4-{[2-({[(3R)-3-hydroxypyrrolidin-1-yl]carbonyl}amino)pyridin-4-yl]oxy}phenyl)-N′-(4-fluorophenyl)cyclopropane-1,1-dicarboxamide], for which the concentration for half-maximal inhibition (IC50) on HGFR turned out to be 12 nM; in assay [1], 14 nM.

On to `O=C(Nc1cc(Oc2ccc(NC(=O)C3(C(=O)Nc4ccc(F)cc4)CC3)cc2F)ccn1)N1CCC(CO)CC1` [Example 85, N-(3-Fluoro-4-{[2-({[-4-(hydroxymethyl)piperidin-1-yl]carbonyl}amino)pyridin-4-yl]oxy}phenyl)-N′-(4-fluorophenyl)cyclopropane-1,1-dicarboxamide], for which the IC50 against HGFR was found to be 14 nM; in assay [1], 15 nM.

As to `O=C(Nc1cc(Oc2ccc(NC(=O)C3(C(=O)Nc4ccc(F)cc4)CC3)c(F)c2)ccn1)N1CC[C@H](O)C1` [Example 89, N-(2-Fluoro-4-{[2-({[(3S)-3-hydroxypyrrolidin-1-yl]carbonyl}amino)pyridin-4-yl]oxy}phenyl)-N′-(4-fluorophenyl)cyclopropane-1,1-dicarboxamide], the values for the concentration for half-maximal inhibition (IC50) (against HGFR; in assay [1]) were 17 nM and 18 nM, respectively.

`O=C(Nc1cc(Oc2ccc(NC(=O)C3(C(=O)Nc4ccc(F)cc4)CC3)cc2F)ccn1)N1CCC(O)CC1` [Example 84, N-[3-Fluoro-4-[(2-{[(4-hydroxypiperidin-1-yl)carbonyl]amino}pyridin-4-yl)oxy]phenyl}-N′-(4-fluorophenyl)cyclopropane-1,1-dicarboxamide]: the concentration for half-maximal inhibition (IC50) at HGFR was found to be 17 nM; in assay [1] it was 19 nM.

`O=C(Nc1cc(Oc2ccc(NC(=O)C3(C(=O)Nc4ccc(F)cc4)CC3)c(F)c2)ccn1)N1CCC(O)CC1` [Example 82, N-[2-Fluoro-4-[(2-{[(4-hydroxypiperidin-1-yl)carbonyl]amino}pyridin-4-yl)oxy]phenyl}-N′-(4-fluorophenyl)cyclopropane-1,1-dicarboxamide]: the figures for the IC50 (on HGFR; in assay [1]) were 22 nM and 21 nM, respectively.

On to `O=C(Nc1cc(Oc2cc(F)c(NC(=O)C3(C(=O)Nc4ccc(F)cc4)CC3)cc2F)ccn1)N1CC(CN2CCC2)C1` [Example 95, N-{4-[(2-{[3-(Azetidin-1-ylmethyl)azetidin-1-ylcarbonyl]amino}pyridin-4-yl)oxy]-2,5-difluorophenyl}-N′-(4-fluorophenyl)cyclopropane-1,1-dicarboxamide], for which the half-maximal inhibitory concentration (IC50) against HGFR was found to be 13 nM; in assay [1], 5.4 nM.

For `CN(C)CC1CCN(C(=O)Nc2cc(Oc3ccc(NC(=O)C4(C(=O)Nc5ccc(F)cc5)CC4)cc3F)ccn2)CC1` [Example 5, N-[4-({2-[({4-[(Dimethylamino)methyl]piperidin-1-yl}carbonyl)amino]pyridin-4-yl}oxy)-3-fluorophenyl]-N′-(4-fluorophenyl)cyclopropane-1,1-dicarboxamide], the IC50 against HGFR was 22 nM; in assay [1], 19 nM.

Take `O=C(Nc1cc(Oc2cc(F)c(NC(=O)C3(C(=O)Nc4ccc(F)cc4)CC3)cc2F)ccn1)N1CCC1` [Example 90, N-[4-({2-[(Azetidin-1-ylcarbonyl)amino]pyridin-4-yl}oxy)-2,5-difluorophenyl]-N′-(4-fluorophenyl)cyclopropane-1,1-dicarboxamide]: the IC50 against HGFR worked out at 11 nM; in assay [1], 5 nM.

With `O=C(Nc1cc(Oc2ccc(NC(=O)C3(C(=O)Nc4ccc(F)cc4)CC3)cc2F)ccn1)N1CC(CO)C1` [Example 81, N-(3-Fluoro-4-{[2-({[3-(hydroxymethyl)azetidin-1-yl]carbonyl}amino)pyridin-4-yl]oxy}phenyl)-N′-(4-fluorophenyl)cyclopropane-1,1-dicarboxamide], the figures for the IC50 (against HGFR; in assay [1]) were 7 nM and 17 nM, respectively.

Regarding `O=C(Nc1cc(Oc2cc(F)c(NC(=O)C3(C(=O)Nc4ccc(F)cc4)CC3)cc2F)ccn1)N1CC(CO)C1` [Example 96, N-(2,5-Difluoro-4-{[2-({[3-(hydroxymethyl)azetidin-1-yl]carbonyl}amino)pyridin-4-yl]oxy}phenyl)-N′-(4-fluorophenyl)cyclopropane-1,1-dicarboxamide], the values for the IC50 (against HGFR; in assay [1]) were 4.2 nM and 3.8 nM, respectively.

For the compound `O=C(Nc1cc(Oc2ccc(NC(=O)C3(C(=O)Nc4ccc(F)cc4)CC3)cc2F)ccn1)N1CC[C@H](O)C1` [Example 88, N-(3-Fluoro-4-{[2-({[(3S)-3-hydroxypyrrolidin-1-yl]carbonyl}amino)pyridin-4-yl]oxy}phenyl)-N′-(4-fluorophenyl)cyclopropane-1,1-dicarboxamide], the results for the IC50 (at HGFR; in assay [1]) were 20 nM and 18 nM, respectively.

Take `O=C(Nc1cc(Oc2ccc(NC(=O)C3(C(=O)Nc4ccc(F)cc4)CC3)cc2F)ccn1)N1CC[C@@H](O)C1` [Example 86, N-(3-Fluoro-4-{[2-({[(3R)-3-hydroxypyrrolidin-1-yl]carbonyl}amino)pyridin-4-yl]oxy}phenyl)-N′-(4-fluorophenyl)cyclopropane-1,1-dicarboxamide]: the IC50 against HGFR is 11 nM; in assay [1], 15 nM.

On to `CN1CCN(C2CCN(C(=O)Nc3cc(Oc4cc(F)c(NC(=O)C5(C(=O)Nc6ccc(F)cc6)CC5)cc4F)ccn3)CC2)CC1` [Example 92, N-(2,5-Difluoro-4-{[2-({[4-(4-methylpiperazin-1-yl)piperidin-1-yl]carbonyl}amino)pyridin-4-yl]oxy}phenyl)-N′-(4-fluorophenyl)cyclopropane-1,1-dicarboxamide], for which the results for the 50% inhibitory concentration (IC50) (against HGFR; in assay [1]) were 13 nM and 4.9 nM, respectively.

The values above are taken from patent US7855290B2, “Pyridine derivatives and pyrimidine derivatives (3)” (Eisai R&D Management Co., Ltd., priority 2005, dated 2010).
